Measured values taken from patent US20230398130A1, “METHODS AND COMPOSITIONS FOR DIFFERENTIATING STEM CELLS” (Massachusetts Institute of Technology, priority 2020, published 2023).

Key:
[1] = tested on: ISC-enriched organoids; test: Primary screen, 384-well 2.5-D organoid differentiation (ENR+CD, 6 days): basal lysozyme secretion (LYZ.NS); type: cell-based, murine; conditions: for Dose.FC.LYZ.NS: ENR+CD, 6 days, FC vs plate median; for Z.LYZ.NS: standard z score of FC
Text: (§1) High-throughput screening.

[2] = tested on: ISC-enriched organoids; test: Secondary (validation) screen, 384-well 2.5-D, ENR+CD 6 days, n=8 wells, vs ENR+CD+DMSO control: ATP (CTG); type: cell-based, murine; set-up: key to Dose.FC.CTG: log10 fold change vs median of vehicle control wells
Method: (§2) Drugs were tested at a narrowed dose range around each treatment's identified optimal dose from the primary screen (4× below, 2× above and below).
as §1
(§3) Secondary lysozyme secretion assay screen. Confirmatory secondary screening with primary hits was performed using the above 384-well plate method. The screen was conducted with 4-plate replicates with a base media of ENR+CD. Media was supplemented with compound at day 0 and day 3 (n=8 well replicates per dose) at four different doses: two-fold above, two-fold below, and four-fold below the optimal final dose for each respective treatment. Additionally, each plate carried a large number of ENR+DMSO or ENR+CD+DMSO (vehicle) control wells (n=100 for ATP, and n=25 for LYZ.NS and LYZ.S) for robust normalization. ATP, non-stimulated lysozyme activity and CCh-stimulated lysozyme activity was again measured and the collected data was again processed in a custom R-script, per primary screen with slight modification. Values were log10 transformed, and a plate-wise FC was calculated for each well based on the median value of ENR+CD+DMSO (vehicle) control wells to normalize plate to plate variability.

[3] = tested on: ISC-enriched organoids; test: Primary screen, 384-well 2.5-D organoid differentiation (ENR+CD, 6 days, Target Selective Inhibitor Library, vs whole-plate median): ATP (CellTiter-Glo 3D, CTG); conditions: for Dose.FC.CTG: ENR+CD, 6 days, FC vs plate median; for Z.CTG: standard z score of FC
[4] = tested on: ISC-enriched organoids; test: Secondary (validation) screen, 384-well 2.5-D, ENR+CD 6 days, n=8 wells, vs ENR+CD+DMSO control: basal lysozyme secretion (LYZ.NS); type: cell-based, murine; set-up: key to Dose.FC.LYZ.NS: log10 fold change vs median of vehicle control wells
Method: as §2, §1, §3

[5] = tested on: ISC-enriched organoids; test: Secondary (validation) screen, 384-well 2.5-D, ENR+CD 6 days, n=8 wells, vs ENR+CD+DMSO control: carbachol-induced lysozyme secretion (LYZ.S); type: cell-based, murine
Method: as §2, §1, §3

[6] = tested on: ISC-enriched organoids; test: Primary screen, 384-well 2.5-D organoid differentiation (ENR+CD, 6 days): carbachol-induced lysozyme secretion (LYZ.S); type: cell-based, murine; conditions: ENR+CD, 6 days, FC vs plate median
Text: as §1

## NC1(Cc2ccc(Cl)cc2)CCN(c2ncnc3[nH]ccc23)CC1 [CCT128930, reference compound]
[1]; Dose 0.08 uM
  Dose.FC.LYZ.NS: 0.323 log 2 fold change
  Z.LYZ.NS: 2.811
[1]; Dose 0.40 uM
  Dose.FC.LYZ.NS: −0.018 log 2 fold change
  Z.LYZ.NS: −0.154
[1]; Dose 2.00 uM
  Dose.FC.LYZ.NS: 0.073 log 2 fold change
  Z.LYZ.NS: 0.633
[1]; Dose 10.00 uM
  Dose.FC.LYZ.NS: −0.150 log 2 fold change
  Z.LYZ.NS: −1.307
[2]; Dose 0.02 uM
  Dose.FC.CTG: −0.117
  Z.CTG: −1.054
  repSSMD.CTG: −0.787
[2]; Dose 0.04 uM
  Dose.FC.CTG: 0.122
  Z.CTG: 1.101
  repSSMD.CTG: 0.922
[2]; Dose […]
  Dose.FC.CTG: −0.088
[2]; dose 0.08 uM
  Dose.FC.CTG: 0.166
  Z.CTG: 1.494
  repSSMD.CTG: 1.047
[3]; Dose 0.08 uM
  Dose.FC.CTG: 0.095 log 2 fold change
  Z.CTG: 0.228
[3]; Dose 0.40 uM
  Dose.FC.CTG: −0.025 log 2 fold change
  Z.CTG: −0.060
[3]; Dose 2.00 uM
  Dose.FC.CTG: 0.127 log 2 fold change
  Z.CTG: 0.304
[3]; Dose 10.00 uM
  Dose.FC.CTG: −0.175 log 2 fold change
  Z.CTG: −0.418
[4]; Dose 0.02 uM
  Dose.FC.LYZ.NS: −0.241
  Z.LYZ.NS: −1.927
  repSSMD.LYZ.NS: −2.551
[4]; Dose 0.04 uM
  Dose.FC.LYZ.NS: −0.020
  Z.LYZ.NS: −0.164
  repSSMD.LYZ.NS: −0.204
[4]; Dose […]
  Dose.FC.LYZ.NS: −0.160
[4]; dose 0.08 uM
  Dose.FC.LYZ.NS: 0.031
  Z.LYZ.NS: 0.248
  repSSMD.LYZ.NS: 0.366
[5]; Dose 0.02 uM
  Z.LYZ.S: −2.445
  log10 fold change in stimulated lysozyme secretion vs vehicle control: −0.319
  repSSMD.LYZ.S: −3.825
[5]; Dose 0.04 uM
  Z.LYZ.S: −0.108
  log10 fold change in stimulated lysozyme secretion vs vehicle control: −0.014
  repSSMD.LYZ.S: −0.157
[5]; Dose […]
  log10 fold change in stimulated lysozyme secretion vs vehicle control: −0.217
[5]; dose 0.08 uM
  Z.LYZ.S: 0.041
  log10 fold change in stimulated lysozyme secretion vs vehicle control: 0.005
  repSSMD.LYZ.S: 0.069
[6]; Dose 0.08 uM
  Dose.FC.LYZ.S: 0.266 log 2 fold change
[6]; Dose 0.40 uM
  Dose.FC.LYZ.S: −0.007 log 2 fold change
[6]; Dose 2.00 uM
  Dose.FC.LYZ.S: 0.053 log 2 fold change
[6]; Dose 10.00 uM
  Dose.FC.LYZ.S: −0.201 log 2 fold change
